# Source: patent US5827876A, “Inhibition of bone loss by 3-(4-acrylamidobenzoyl) benzo[b]-thiophenes” (priority 1997, dated 1998)
# Read-outs that look alike come from different tables or passages of the source.
# Legend:
# Ishikawa cells = experiment: Ishikawa Cell Alkaline Phosphatase Assay; assay type: cell-based; conditions: Homo sapiens, reference compounds, estrogenic activity, 48 h treatment, 95% C.I. given in parentheses, read-out: ED50 values (95% C.I.), alkaline phosphatase activity
# Experimental: Ishikawa Cell Alkaline Phosphatase Assay
# Cell maintenance and treatment:
# Ishikawa cells are maintained in DMEM/F12 (50%:50%) containing phenol red+10% fetal bovine serum. The medium also is supplemented with 2 mM Glutamax, 1% Pen/Strep and 1 mM sodium pyruvate. Five days prior to the beginning of an experiment (treatment of cells) the medium is changed to phenol red-free DMEM/F12+10% dextran coated charcoal stripped serum. On the day before treatment, cells are harvested using 0.5% trypsin/EDTA and plated at a density of 5×10^4 cells/well in 96-well tissue culture plates. […] Cells are treated for 48 hours prior to assay. […] Sample size for each compound dose is n=8.
# Alkaline Phosphatase assay:
# At the end of 48 hours the media is aspirated and cells are washed three times with phosphate buffered saline (PBS). 50 μl of lysis buffer (0.1M Tris-HCl, pH 9.8, 0.2% Triton X-100) is added to each well. Plates are placed at -80° C. for minimally 15 minutes. Plates are rapidly thawed at 37° C. followed by the addition of 150 μl of 0.1M Tris-HCl, pH 9.8, containing 4 mM para-nitrophenylphosphate to each well (final concentration is 3 mM pNPP).
# Absorbance and slope calculations are done using the KineticCalc Application program (Bio-Tek Instruments, Inc., Winooski, Vt.). Results are expressed as the mean ±S.D. of the rate of enzyme reaction (slope) averaged over the linear portion of the kinetic reaction curve (optical density readings every 5 minutes for 30 minutes absorbance reading).
# estrogen receptor = molecular target: T1, estrogen receptor (Homo sapiens, UniProt P03372); experiment: Estrogen Receptor Binding/Competition Assay ([3H]17β-estradiol displacement, CHO cytosol)
# T1 sequence (P03372 1-595): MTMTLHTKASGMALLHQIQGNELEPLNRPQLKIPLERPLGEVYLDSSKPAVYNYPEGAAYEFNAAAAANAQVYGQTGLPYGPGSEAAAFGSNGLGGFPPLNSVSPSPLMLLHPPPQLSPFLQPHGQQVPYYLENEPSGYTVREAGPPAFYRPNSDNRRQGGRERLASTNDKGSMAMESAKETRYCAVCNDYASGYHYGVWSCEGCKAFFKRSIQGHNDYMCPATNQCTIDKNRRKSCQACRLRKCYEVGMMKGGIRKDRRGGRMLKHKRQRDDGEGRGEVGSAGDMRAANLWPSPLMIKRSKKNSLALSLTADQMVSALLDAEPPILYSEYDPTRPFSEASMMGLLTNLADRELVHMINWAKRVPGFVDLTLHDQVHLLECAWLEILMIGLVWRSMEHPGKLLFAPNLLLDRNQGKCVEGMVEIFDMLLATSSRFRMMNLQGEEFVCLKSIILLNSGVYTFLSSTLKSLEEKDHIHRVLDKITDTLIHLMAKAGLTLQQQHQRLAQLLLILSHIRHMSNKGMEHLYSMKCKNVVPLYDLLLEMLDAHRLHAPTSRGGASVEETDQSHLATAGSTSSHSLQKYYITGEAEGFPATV
# ovariectomized rats = conditions: cited from earlier work
# [1] = background statement, cited from earlier work
# [2] = ovariectomized rats, Black et al. 1994
Compound,EC50 (Ishikawa cells),IC50 (estrogen receptor),other results
C[C@]12CC[C@@H]3c4ccc(O)cc4CC[C@H]3[C@@H]1CC[C@H]2O [17α-estradiol],1.42 nM,–,–
C[C@]12CC[C@@H]3c4ccc(O)cc4CC[C@H]3[C@@H]1CC[C@@H]2O [17β-estradiol],0.03 nM,–,–
"CN(C)C(=O)/C=C/c1ccc(C(=O)c2c(-c3ccc(O)cc3)sc3cc(O)ccc23)cc1 [Example 3, (E)-3-{4-[6-Hydroxy-2-(4-hydroxyphenyl)benzo[b]thiophene-3-carbonyl]phenyl}-N,N-dimethylacrylamide]",–,150 nM,–
"CC(C)(C)NC(=O)/C=C/c1ccc(C(=O)c2c(-c3ccc(O)cc3)sc3cc(O)ccc23)cc1 [Example 4, (E)-N-t-Butyl-3-{4-[6-hydroxy-2-(4-hydroxyphenyl)benzo[b]thiophene-3-carbonyl]phenyl}acrylamide]",–,100 nM,–
"CCN(CC)C(=O)/C=C/c1ccc(C(=O)c2c(-c3ccc(O)cc3)sc3cc(O)ccc23)cc1 [Example 5, (E)-N,N-Diethyl-3-{4-[6-hydroxy-2-(4-hydroxyphenyl)benzo[b]thiophene-3-carbonyl]phenyl}acrylamide]",–,100 nM,–
"O=C(c1ccc(/C=C/C(=O)N2CCOCC2)cc1)c1c(-c2ccc(O)cc2)sc2cc(O)ccc12 [Example 6, (E)-3-{4-[6-Hydroxy-2-(4 hydroxyphenyl)benzo[b]thiophene-3-carbonyl]-phenyl}-1-(morpholin-4-yl)prop-2-en-1-one]",–,170 nM,–
"O=C(c1ccc(/C=C/C(=O)N2CCCCC2)cc1)c1c(-c2ccc(O)cc2)sc2cc(O)ccc12 [Example 7, (E)-3-{4-[6-Hydroxy-2-(4-hydroxyphenyl)benzo[b]thiophene-3-carbonyl]phenyl}-1-(piperidinyl)prop-en-1-one]",–,70 nM,–
C[C@]12CC[C@@H]3c4ccc(O)cc4CC[C@H]3[C@@H]1C[C@@H](O)[C@@H]2O [estriol],0.13 nM,–,–
C[C@]12CC[C@@H]3c4ccc(O)cc4CC[C@H]3[C@@H]1CCC2=O [estrone],0.36 nM,–,–
O=C(c1ccc(OCCN2CCCCC2)cc1)c1c(-c2ccc(O)cc2)sc2cc(O)ccc12 [raloxifene],–,–,effect on bone loss (ovariectomized rats; [2]): prevents bone loss; effect on serum cholesterol (ovariectomized rats; [2]): reduces serum cholesterol; uterine hypertrophy (ovariectomized rats; [2]): without causing uterine hypertrophy; effect on bone loss (ovariectomized rats; species not given): reduce bone loss; uterine hypertrophy (ovariectomized rats; species not given): without causing uterine hypertrophy
[F-].[Na+] [sodium fluoride],–,–,bone growth quality [1]: the bone growth is irregular; fracture incidence [1]: fracture incidence does not appear to be significantly lowered; side-effects [1]: significant side-effects; bone density increase ([1]; up to the value): 8-10 % a year
